ChEMBL document CHEMBL1139785, “Synthesis of novel HIV protease inhibitors (PI) with activity against PI-resistant virus” (Bioorg Med Chem Lett, 2007)
pIC50: −log10 of the molar value. Blank lines part the entries; values can stand above or below the molecule they belong to.

Columns and labels:
Protease = Protease (Human immunodeficiency virus 1, UniProt Q9YQ12); assay: Inhibition of wild type HIV1 NL4-3 protease
[1] = test system: Human immunodeficiency virus 1; assay: Antiviral activity against HIV1 NL4-3 in MT4 cells by viral spread assay; format: functional; details: Human immunodeficiency virus 1, NL4-3, MT4; read-out: CIC95
[2] = Inhibition of HIV1 NL4-3 protease K60C mutant; set-up: species or system Human immunodeficiency virus 1
[3] = Inhibition of HIV1 NL4-3 protease V18C mutant; set-up: species or system Human immunodeficiency virus 1
[4] = test system: Human immunodeficiency virus 1; assay: Antiviral activity against HIV1 with protease K60C mutant in MT4 cells by viral spread assay; details: Human immunodeficiency virus 1, MT4; read-out: CIC95
[5] = test system: Human immunodeficiency virus 1; assay: Antiviral activity against HIV1 with protease V18C mutant in MT4 cells by viral spread assay; details: Human immunodeficiency virus 1, MT4; read-out: CIC95

Chain of Protease (Q9YQ12 whole entry): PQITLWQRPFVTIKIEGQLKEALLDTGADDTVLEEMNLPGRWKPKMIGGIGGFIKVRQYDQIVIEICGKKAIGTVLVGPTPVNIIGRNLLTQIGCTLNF

pIC50 (Protease): 7.85
SMILES: Cc1cccc(C)c1CNC(=O)[C@@H]1CCCN1C(=O)[C@@H](O)C[C@@H](Cc1ccccc1)C(=O)N[C@H]1c2ccccc2OC[C@H]1O
IC95 [1]: 1000 nM

SMILES: O=C(N[C@H]1c2ccccc2OC[C@H]1O)[C@H](Cc1ccccc1)C[C@H](O)C(=O)N1COC2(CCCC2)[C@H]1C(=O)NCc1c(Cl)cccc1Cl
pIC50 (Protease): 9.96
IC95 [1]: 62.5 nM
pIC50 [2]: 9.30
pIC50 [3]: 9.00
IC95 [4]: 250 nM
IC95 [5]: 500 nM

SMILES: Cc1cccc(C)c1CNC(=O)[C@H]1N(C(=O)[C@@H](O)C[C@@H](Cc2ccccc2)C(=O)N[C@H]2c3ccccc3OC[C@H]2O)CCC1(C)C
pIC50 (Protease): 9.85
IC95 [1]: 15 nM
pIC50 [2]: 8.80
pIC50 [3]: 9.40
IC95 [4]: 500 nM
IC95 [5]: 31 nM

SMILES: Cc1nsc(C)c1CNC(=O)[C@H]1N(C(=O)[C@@H](O)C[C@@H](Cc2ccccc2)C(=O)N[C@H]2c3ccccc3OC[C@H]2O)COC12CCCC2
pIC50 (Protease): 10.00
IC95 [1]: 125 nM
pIC50 [2]: 9.40
pIC50 [3]: 9.10
IC95 [4]: 250 nM
IC95 [5]: 250 nM

SMILES: Cc1cccc(C)c1CNC(=O)[C@H]1N(C(=O)[C@@H](O)C[C@@H](Cc2ccccc2)C(=O)N[C@H]2c3ccccc3OC[C@H]2O)COC12CCCC2
pIC50 (Protease): 10.00
IC95 [1]: 8 nM
pIC50 [3]: 9.30
IC95 [4]: 125 nM
IC95 [5]: 62 nM

pIC50 (Protease): 7.05
SMILES: Cc1cccc(C)c1CNC(=O)[C@@H]1CCN1C(=O)[C@@H](O)C[C@@H](Cc1ccccc1)C(=O)N[C@H]1c2ccccc2OC[C@H]1O
IC95 [1]: 1000 nM

SMILES: Cc1cccc(C)c1CNC(=O)[C@H]1N(C(=O)[C@@H](O)C[C@@H](Cc2ccccc2)C(=O)N[C@H]2c3ccccc3OC[C@H]2O)COC1(C)C
pIC50 (Protease): 9.77
IC95 [1]: 15 nM
pIC50 [2]: 8.66
pIC50 [3]: 8.89
IC95 [4]: 500 nM
IC95 [5]: 62 nM

pIC50 (Protease): 10.52
SMILES: Cc1cccc(C)c1CNC(=O)[C@H]1N(C(=O)[C@@H](O)C[C@@H](Cc2ccccc2)C(=O)N[C@H]2c3ccccc3OC[C@H]2O)CSC1(C)C
IC95 [1]: 15 nM

SMILES: Cc1noc(C)c1CNC(=O)[C@H]1N(C(=O)[C@@H](O)C[C@@H](Cc2ccccc2)C(=O)N[C@H]2c3ccccc3OC[C@H]2O)COC12CCCC2
pIC50 (Protease): 9.70
IC95 [1]: 250 nM
pIC50 [2]: 8.82
pIC50 [3]: 8.49
IC95 [4]: 500 nM
IC95 [5]: 1000 nM

pIC50 (Protease): 7.38
SMILES: Cc1cccc(C)c1CNC(=O)[C@@H]1CCCCN1C(=O)[C@@H](O)C[C@@H](Cc1ccccc1)C(=O)N[C@H]1c2ccccc2OC[C@H]1O
IC95 [1]: 1000 nM

SMILES: CC(C)(C)NC(=O)[C@@H]1CN(Cc2cccnc2)CCN1C[C@@H](O)CC(Cc1ccccc1)C(=O)N[C@H]1c2ccccc2C[C@H]1O (single isomer, unassigned)
IC95 [1]: 45 nM
pIC50 [2]: 7.21
pIC50 [3]: 7.36
IC95 [4]: 1000 nM
IC95 [5]: 890 nM
